Experimental data as given in ChEMBL document CHEMBL1157712, “Hit to lead account of the discovery of bisbenzamide and related ureidobenzamide inhibitors of Rho kinase” (J Med Chem, 2010).
Each block holds one compound with its values, some of them ahead of it.

Columns and labels:
[1] = Inhibition of CK2 at 3 uM relative to control; values are per cent of control
[2] = target: Glycogen synthase kinase-3 beta (Homo sapiens) (UniProt P49841); assay: Inhibition of GSK3-beta at 3 uM relative to control; values are per cent of control
[3] = target: Serine/threonine-protein kinase 3 (Homo sapiens) (UniProt Q13188); assay: Inhibition of MST2 at 3 uM relative to control; values are per cent of control
[4] = target: T1, Serine/threonine-protein kinase N2 (Homo sapiens, UniProt Q16513)
[5] = target: Protein kinase C alpha type (Homo sapiens) (UniProt P17252); assay: Inhibition of PKCalpha; conditions: values are per cent of control
[6] = target: MAP kinase-activated protein kinase 3 (Homo sapiens) (UniProt Q16644); assay: Inhibition of MAPKAPK3 at 3 uM relative to control; values are per cent of control
[7] = target: Serine/threonine-protein kinase Nek2 (Homo sapiens) (UniProt P51955); assay: Inhibition of NEK2a at 3 uM relative to control; values are per cent of control
[8] = target: Serine/threonine-protein kinase MRCK beta (Homo sapiens) (UniProt Q9Y5S2); assay: Inhibition of CDC42BPB
[9] = target: SRSF protein kinase 1 (Homo sapiens) (UniProt Q96SB4); assay: Inhibition of SRPK1 at 3 uM relative to control; values are per cent of control
SRSF protein kinase 1 (Homo sapiens), sequence (Q96SB4 whole entry): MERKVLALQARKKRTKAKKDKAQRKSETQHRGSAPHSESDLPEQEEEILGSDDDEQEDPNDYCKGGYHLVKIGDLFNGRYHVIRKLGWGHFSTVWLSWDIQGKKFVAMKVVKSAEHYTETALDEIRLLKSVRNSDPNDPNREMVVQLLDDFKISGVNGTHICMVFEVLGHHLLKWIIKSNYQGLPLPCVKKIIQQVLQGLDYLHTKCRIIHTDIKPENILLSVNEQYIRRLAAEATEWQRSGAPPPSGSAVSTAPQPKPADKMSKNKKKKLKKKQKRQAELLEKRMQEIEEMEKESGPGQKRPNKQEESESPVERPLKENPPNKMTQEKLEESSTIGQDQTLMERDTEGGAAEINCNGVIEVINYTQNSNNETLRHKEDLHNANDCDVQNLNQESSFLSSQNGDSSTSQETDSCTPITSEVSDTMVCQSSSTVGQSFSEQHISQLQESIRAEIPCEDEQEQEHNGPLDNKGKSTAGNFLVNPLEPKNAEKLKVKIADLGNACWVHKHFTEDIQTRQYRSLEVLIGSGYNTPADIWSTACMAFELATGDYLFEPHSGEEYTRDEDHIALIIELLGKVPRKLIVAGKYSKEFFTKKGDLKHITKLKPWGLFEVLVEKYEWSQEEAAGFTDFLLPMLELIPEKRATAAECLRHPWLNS

[10] = target: Serine/threonine-protein kinase Chk2 (Homo sapiens) (UniProt O96017); assay: Inhibition of CHK2 at 3 uM relative to control; values are per cent of control
[11] = target: Ribosomal protein S6 kinase alpha-5 (Homo sapiens) (UniProt O75582); assay: Inhibition of MSK1 at 3 uM relative to control; values are per cent of control
[12] = target: Serine/threonine-protein kinase Nek6 (Homo sapiens) (UniProt Q9HC98); assay: Inhibition of NEK6 at 3 uM relative to control; values are per cent of control
[13] = target: Mitogen-activated protein kinase 15 (Homo sapiens) (UniProt Q8TD08); assay: Inhibition of ERK8 at 3 uM relative to control; values are per cent of control
[14] = target: Serine/threonine-protein kinase Sgk1 (Homo sapiens) (UniProt O00141); assay: Inhibition of SGK at 3 uM relative to control; values are per cent of control
[15] = target: Ribosomal protein S6 kinase beta-1 (Homo sapiens) (UniProt P23443); assay: Inhibition of S6K1 at 3 uM relative to control; values are per cent of control
Ribosomal protein S6 kinase beta-1 (Homo sapiens), sequence (P23443 whole entry, looked up): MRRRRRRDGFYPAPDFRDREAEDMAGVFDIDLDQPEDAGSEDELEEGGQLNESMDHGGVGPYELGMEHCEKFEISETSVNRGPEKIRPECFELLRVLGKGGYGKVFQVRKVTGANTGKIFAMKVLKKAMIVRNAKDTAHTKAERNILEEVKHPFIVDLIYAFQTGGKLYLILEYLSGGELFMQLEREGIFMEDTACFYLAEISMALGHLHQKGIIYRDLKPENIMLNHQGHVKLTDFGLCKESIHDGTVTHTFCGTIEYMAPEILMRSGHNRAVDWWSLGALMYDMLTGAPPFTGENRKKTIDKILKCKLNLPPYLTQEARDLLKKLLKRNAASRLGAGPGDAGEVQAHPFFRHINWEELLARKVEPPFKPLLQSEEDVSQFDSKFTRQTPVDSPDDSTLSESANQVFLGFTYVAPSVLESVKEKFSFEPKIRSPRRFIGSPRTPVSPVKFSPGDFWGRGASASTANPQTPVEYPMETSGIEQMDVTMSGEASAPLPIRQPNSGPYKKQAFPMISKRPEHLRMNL

[16] = target: T1, Serine/threonine-protein kinase N2; assay: Inhibition of PRK2; values are per cent of control
[17] = target: Myotonin-protein kinase (Homo sapiens) (UniProt Q09013); conditions: 3 to 6 uM
Description: Inhibition of DMPK at 3 to 6 uM relative to control

[18] = target: Vascular endothelial growth factor receptor 1 (Homo sapiens, UniProt P17948); assay: Inhibition of VEGFR1
[19] = target: Tyrosine-protein kinase ITK/TSK (Homo sapiens, UniProt Q08881); assay: Inhibition of ITK
[20] = target: Discoidin domain-containing receptor 2 (Homo sapiens) (UniProt Q16832); conditions: 3 to 6 uM
Description: Inhibition of DDR2 at 3 to 6 uM relative to control

[21] = target: Serine/threonine-protein kinase PLK1 (Homo sapiens, UniProt P53350); assay: Inhibition of PLK
[22] = target: Tyrosine-protein kinase JAK3 (Homo sapiens) (UniProt P52333); conditions: 3 to 6 uM
Description: Inhibition of JAK3 at 3 to 6 uM relative to control

[23] = target: Epidermal growth factor receptor (Homo sapiens) (UniProt P00533); conditions: 3 to 6 uM
Epidermal growth factor receptor (Homo sapiens), sequence (P00533 whole entry): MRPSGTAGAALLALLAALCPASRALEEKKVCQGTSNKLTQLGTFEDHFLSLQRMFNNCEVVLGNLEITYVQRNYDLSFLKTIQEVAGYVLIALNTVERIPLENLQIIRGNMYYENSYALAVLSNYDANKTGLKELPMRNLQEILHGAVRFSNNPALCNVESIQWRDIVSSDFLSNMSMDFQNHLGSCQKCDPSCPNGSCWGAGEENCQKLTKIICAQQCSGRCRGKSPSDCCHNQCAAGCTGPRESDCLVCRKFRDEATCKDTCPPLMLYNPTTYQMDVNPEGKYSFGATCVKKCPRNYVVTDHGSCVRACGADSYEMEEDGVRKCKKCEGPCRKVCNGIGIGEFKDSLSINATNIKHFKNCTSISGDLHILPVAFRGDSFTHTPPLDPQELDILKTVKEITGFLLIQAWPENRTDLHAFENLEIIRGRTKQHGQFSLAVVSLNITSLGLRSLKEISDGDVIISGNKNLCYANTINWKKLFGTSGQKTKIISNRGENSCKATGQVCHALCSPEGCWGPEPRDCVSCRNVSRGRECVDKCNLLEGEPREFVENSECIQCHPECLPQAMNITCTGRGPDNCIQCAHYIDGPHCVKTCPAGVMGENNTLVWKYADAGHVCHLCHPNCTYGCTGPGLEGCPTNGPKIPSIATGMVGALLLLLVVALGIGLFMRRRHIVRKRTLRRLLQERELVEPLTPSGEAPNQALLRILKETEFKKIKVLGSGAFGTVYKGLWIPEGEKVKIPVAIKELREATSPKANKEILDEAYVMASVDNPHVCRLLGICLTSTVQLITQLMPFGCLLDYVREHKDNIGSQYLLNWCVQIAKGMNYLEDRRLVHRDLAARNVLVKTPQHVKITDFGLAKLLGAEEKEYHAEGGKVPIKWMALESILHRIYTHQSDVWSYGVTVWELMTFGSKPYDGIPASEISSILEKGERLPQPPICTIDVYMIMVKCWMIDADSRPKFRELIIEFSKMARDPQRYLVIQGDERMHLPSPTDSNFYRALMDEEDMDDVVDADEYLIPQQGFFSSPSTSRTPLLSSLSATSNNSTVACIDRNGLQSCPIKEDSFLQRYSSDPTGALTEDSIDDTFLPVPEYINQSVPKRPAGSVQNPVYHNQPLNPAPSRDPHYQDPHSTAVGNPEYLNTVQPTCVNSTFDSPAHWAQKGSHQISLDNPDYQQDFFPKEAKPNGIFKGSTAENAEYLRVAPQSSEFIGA
Description: Inhibition of EGFR at 3 to 6 uM relative to control

[24] = target: Mitogen-activated protein kinase 14 (Homo sapiens) (UniProt Q16539); conditions: 3 to 6 uM
Description: Inhibition of p38a at 3 to 6 uM relative to control

[25] = target: Protein kinase C alpha type (Homo sapiens) (UniProt P17252); conditions: 3 to 6 uM
Description: Inhibition of PKCalpha at 3 to 6 uM relative to control

[26] = target: Voltage-gated inwardly rectifying potassium channel KCNH2 (Homo sapiens, UniProt Q12809); assay: Inhibition of human ERG potassium channel up to 70 uM
[27] = target: Mitogen-activated protein kinase kinase kinase 14 (Homo sapiens) (UniProt Q99558); conditions: 3 to 6 uM
Description: Inhibition of NIK at 3 to 6 uM relative to control

[28] = Metabolic stability in human liver microsomes assessed as half life; type: ADME, Microsome
[29] = target: Mitogen-activated protein kinase kinase kinase 11 (Homo sapiens, UniProt Q16584); assay: Inhibition of MAP3K11
Caspase-1 (Homo sapiens) = Caspase-1 (Homo sapiens) (UniProt P29466); conditions: 3 to 6 uM
Description: Inhibition of ICE at 3 to 6 uM relative to control

[30] = target: Calcium/calmodulin-dependent protein kinase type 1 (Homo sapiens) (UniProt Q14012); conditions: 3 to 6 uM
Calcium/calmodulin-dependent protein kinase type 1 (Homo sapiens), sequence (Q14012 whole entry, looked up): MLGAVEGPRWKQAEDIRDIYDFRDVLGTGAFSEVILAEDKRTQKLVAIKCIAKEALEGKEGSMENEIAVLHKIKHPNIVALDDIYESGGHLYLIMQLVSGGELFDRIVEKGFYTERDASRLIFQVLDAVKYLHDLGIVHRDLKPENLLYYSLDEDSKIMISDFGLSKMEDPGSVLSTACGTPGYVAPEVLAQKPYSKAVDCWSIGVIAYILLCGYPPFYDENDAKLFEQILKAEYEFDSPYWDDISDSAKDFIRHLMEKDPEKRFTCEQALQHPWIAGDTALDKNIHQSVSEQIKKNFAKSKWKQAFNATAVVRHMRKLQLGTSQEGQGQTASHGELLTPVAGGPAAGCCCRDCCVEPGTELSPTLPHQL
Description: Inhibition of CAMK1 at 3 to 6 uM relative to control

[31] = target: Serine/threonine-protein kinase Nek7 (Homo sapiens) (UniProt Q8TDX7); conditions: 3 to 6 uM
Description: Inhibition of NEK7 at 3 to 6 uM relative to control

[32] = target: Proto-oncogene tyrosine-protein kinase Src (Homo sapiens) (UniProt P12931); conditions: 3 to 6 uM
Description: Inhibition of SRC at 3 to 6 uM relative to control

[33] = target: Casein kinase I isoform alpha (Homo sapiens) (UniProt P48729); conditions: 3 to 6 uM
Casein kinase I isoform alpha (Homo sapiens), sequence (P48729 2-337 limits assumed): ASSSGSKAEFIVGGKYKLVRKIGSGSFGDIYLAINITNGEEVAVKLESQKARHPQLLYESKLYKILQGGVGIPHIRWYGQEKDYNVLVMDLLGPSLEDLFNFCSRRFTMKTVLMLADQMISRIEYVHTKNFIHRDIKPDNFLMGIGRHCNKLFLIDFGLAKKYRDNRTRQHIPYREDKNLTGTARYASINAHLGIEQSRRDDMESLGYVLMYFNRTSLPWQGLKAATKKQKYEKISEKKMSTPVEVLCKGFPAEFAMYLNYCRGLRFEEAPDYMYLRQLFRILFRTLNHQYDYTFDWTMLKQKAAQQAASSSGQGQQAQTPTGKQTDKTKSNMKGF
Description: Inhibition of CK1 at 3 to 6 uM relative to control

[34] = target: SRSF protein kinase 1 (Homo sapiens) (UniProt Q96SB4); conditions: 3 to 6 uM
Description: Inhibition of SRPK1 at 3 to 6 uM relative to control

[35] = target: Tyrosine-protein kinase Lyn (Homo sapiens, UniProt P07948); assay: Inhibition of LYN
Tyrosine-protein kinase Lyn, sequence (P07948 whole entry): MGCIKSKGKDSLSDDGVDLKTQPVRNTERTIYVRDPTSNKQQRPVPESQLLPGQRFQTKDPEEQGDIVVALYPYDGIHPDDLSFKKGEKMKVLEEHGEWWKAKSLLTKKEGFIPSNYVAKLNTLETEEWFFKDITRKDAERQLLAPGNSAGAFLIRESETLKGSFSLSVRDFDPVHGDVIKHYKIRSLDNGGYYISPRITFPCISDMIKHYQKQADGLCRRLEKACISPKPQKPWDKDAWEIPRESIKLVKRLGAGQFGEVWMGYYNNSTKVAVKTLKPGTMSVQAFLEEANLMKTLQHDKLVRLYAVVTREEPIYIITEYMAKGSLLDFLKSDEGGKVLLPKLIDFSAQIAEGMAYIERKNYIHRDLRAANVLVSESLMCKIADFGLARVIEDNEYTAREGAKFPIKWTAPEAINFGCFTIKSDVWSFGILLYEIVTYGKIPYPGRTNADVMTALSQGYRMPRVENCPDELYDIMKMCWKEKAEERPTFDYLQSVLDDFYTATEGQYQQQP

[36] = target: MAP kinase-interacting serine/threonine-protein kinase 2 (Homo sapiens) (UniProt Q9HBH9); conditions: 3 to 6 uM
Description: Inhibition of MNK2 at 3 to 6 uM relative to control

[37] = target: Eukaryotic elongation factor 2 kinase (Homo sapiens) (UniProt O00418); conditions: 3 to 6 uM
Description: Inhibition of EF2K at 3 to 6 uM relative to control

[38] = target: Ribosomal protein S6 kinase alpha-3 (Homo sapiens) (UniProt P51812); conditions: 3 to 6 uM
Ribosomal protein S6 kinase alpha-3 (Homo sapiens), sequence (P51812 whole entry): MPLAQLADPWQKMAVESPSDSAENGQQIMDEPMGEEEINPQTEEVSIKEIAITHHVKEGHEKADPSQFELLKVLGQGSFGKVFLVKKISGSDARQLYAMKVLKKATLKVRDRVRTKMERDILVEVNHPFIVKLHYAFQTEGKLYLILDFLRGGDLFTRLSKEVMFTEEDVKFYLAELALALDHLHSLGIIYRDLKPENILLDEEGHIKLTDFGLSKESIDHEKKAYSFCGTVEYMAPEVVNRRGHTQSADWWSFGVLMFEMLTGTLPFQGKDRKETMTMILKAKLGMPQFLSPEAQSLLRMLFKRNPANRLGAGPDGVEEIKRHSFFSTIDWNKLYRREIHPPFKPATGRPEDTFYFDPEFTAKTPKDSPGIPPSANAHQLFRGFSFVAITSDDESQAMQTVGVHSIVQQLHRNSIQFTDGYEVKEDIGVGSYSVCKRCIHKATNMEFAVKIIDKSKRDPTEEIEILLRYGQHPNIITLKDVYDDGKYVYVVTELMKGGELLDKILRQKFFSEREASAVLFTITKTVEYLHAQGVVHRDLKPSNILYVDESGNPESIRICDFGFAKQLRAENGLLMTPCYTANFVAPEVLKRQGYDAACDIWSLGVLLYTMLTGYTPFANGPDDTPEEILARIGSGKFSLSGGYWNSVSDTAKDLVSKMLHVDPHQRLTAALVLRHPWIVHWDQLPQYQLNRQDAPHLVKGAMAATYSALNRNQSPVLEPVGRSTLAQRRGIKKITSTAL
Description: Inhibition of RSK2 at 3 to 6 uM relative to control

[39] = target: Serine/threonine-protein kinase mTOR (Homo sapiens) (UniProt P42345); conditions: 3 to 6 uM
Description: Inhibition of mTOR at 3 to 6 uM relative to control

- residual activity [1]: > 50%
- residual activity [2]: > 50%
- residual activity [3]: > 50%
- IC50 [4]: 0.77 µM
- residual activity [5]: 50%
- residual activity [6]: > 50%
- residual activity [7]: > 50%
- IC50 [8]: > 5 µM
- residual activity [9]: > 50%
- residual activity [10]: > 50%
- residual activity [11]: > 50%
- residual activity [12]: > 50%
- residual activity [14]: > 50%
- residual activity [15]: > 50%
- residual activity [16]: 33%
SMILES: NC(=O)c1ccc(NC(=O)NCc2cccc(C(=O)Nc3ccc4c(c3)CNCC4)c2)cc1
- residual activity [13]: > 50%

- residual activity [17]: > 50%
- IC50 [18]: > 10 µM
- IC50 [19]: > 10 µM
- residual activity [20]: > 50%
- IC50 [21]: > 10 µM
- residual activity [22]: > 50%
- residual activity [23]: > 50%
- residual activity [24]: > 50%
- residual activity [25]: > 50%
- residual activity [27]: > 50%
- half-life [28]: 2.43 h
- IC50 [29]: > 10 µM
- residual activity (Caspase-1 (Homo sapiens)): > 50%
- residual activity [30]: > 50%
- residual activity [31]: > 50%
- residual activity [32]: > 50%
- residual activity [33]: > 50%
- residual activity [34]: > 50%
- IC50 [35]: > 10 µM
- residual activity [36]: > 50%
- residual activity [37]: > 50%
- residual activity [38]: > 50%
- residual activity [39]: > 50%
SMILES: COc1ccc(C(=O)NCc2cccc(C(=O)Nc3ccc4c(c3)CNCC4)c2)cc1OC
- inhibition (INH) [26]: Not Active
